Assay results published in paper PMC12281142, “A potent phenylalkylamine disrupts mycobacterial membrane bioenergetics and augments bactericidal activity of bedaquiline” (iScience, 2025).
Values after ≈ are worked out from the molar mass of the structure shown. Where two headings read alike, the source gives them in different places.

Tested on: M. bovis BCG
Test: microbe, parasite or virus in culture
Assay type: cell-based, Mycobacterium bovis BCG

| Compound | MIC50 [µM] | MIC90 [µM] | MIC90 (Table S1) [µM] | also measured |
| --- | --- | --- | --- | --- |
| COc1ccc(CCN(C)CCCC(C#N)(c2ccc(Cl)cc2)C2CCCCC2)cc1OC (stereo not shown) [PhA14] | 19 (≈ 8.91 µg/mL) | 35 (≈ 16.4 µg/mL) | 35 (≈ 16.4 µg/mL) |  |
| COc1ccc(CCN(C)CCCC(C#N)(CC2CCCCC2)c2ccc(Cl)cc2)cc1OC (stereo not shown) [PhA15] | 21 (≈ 10.1 µg/mL) | 37 (≈ 17.9 µg/mL) | 37 (≈ 17.9 µg/mL) |  |
| COc1ccc(C(C#N)(CC=C(C)CCC=C(C)C)CCCN2CCN(C(c3ccccc3)c3ccccc3)CC2)cc1OC (stereo not shown) [PhA16] | 29 (≈ 17.6 µg/mL) | 46 (≈ 27.9 µg/mL) | 46 (≈ 27.9 µg/mL) |  |
| COc1ccc(C(C#N)(CCCn2c(C)nc3ccccc32)C(C)C)cc1OC (stereo not shown) [PhA17] |  |  | > 250 |  |
| COc1ccc(C(C#N)(CCCn2c(N)nc3ccccc32)C(C)C)cc1OC (stereo not shown) [PhA18] |  |  | 155 (≈ 60.8 µg/mL) |  |
| COc1ccc(C(C#N)(CCCN2CCN(c3ccccc3Cl)CC2)C(C)C)cc1OC (stereo not shown) [PhA19] |  |  | 73 (≈ 33.3 µg/mL) |  |
| COc1ccc(C(C#N)(CCCN2CCN(c3ccccc3OC)CC2)C(C)C)cc1OC (stereo not shown) [PhA20] |  |  | 163 (≈ 73.6 µg/mL) |  |
| COc1ccc(C(C#N)(CCCN2CCN(c3cccc(O)c3)CC2)C(C)C)cc1OC (stereo not shown) [PhA21] |  |  | > 250 |  |
| COc1ccc(CCN(C)CCCC(C#N)(c2cc(OC)c(OC)c(OC)c2)C(C)C)cc1OC (stereo not shown) [PhA52, gallopamil, reference compound] |  |  |  | MIC90 (Table S1) (M. bovis BCG, broth dilution): > 250 µM |
| COc1cccc(CCN(C)CCCC(C#N)(c2ccc(OC)c(OC)c2)C(C)C)c1 (stereo not shown) [PhA57, devapamil, reference compound] |  |  |  | MIC90 (Mycobacterium tuberculosis variant bovis BCG, BCG, read-out: MIC90 (Table S1), M. bovis BCG, broth dilution): 180 µM (≈ 76.4 µg/mL) |
| CC(C)C(C#N)(CCCN(C)CCc1ccc(Cl)c(Cl)c1)c1ccc(Cl)c(Cl)c1 (stereo not shown) [PhA66] | 56 (≈ 26.4 µg/mL) |  |  |  |
| carbonyl cyanide m-chlorophenyl hydrazine [CCCP, reference compound] |  | 50 |  | MIC90 BCG: 10 µg/mL |
